Data reported in patent publication US9364566B2, “Aqueous formulation for selective targeting and delivering gene to cancer cells” (Council of Scientific and Industrial Research, priority 2006, dated 2016).

Test system: non-cancer cells
Experiment: Toxicity to non-cancer cells
Format: cell-based
Settings: at the concentration at which dexamethasone is used in the formulation
From the text: In the context the present invention stands with complete patentability because the formulation uses our own patented cationic lipid along side a secondary co-lipid dexamethasone, and a common, generic, glucocorticoid. The dexamethasone is not modified at all and is used as such. […] The use of dexamethasone for the targeted gene delivery to cancer is not documented in any of these papers.
Cell-Culture—MCF-7, CHO, A549 cells were purchased from National Center for Cell Sciences (Pune, India) and were mycoplasma free. Cells were cultured in DMEM medium (Sigma Chemical Co., St. Louis, Mo.) containing 10% fetal bovine serum (Sigma Chemical Co., St. Louis, Mo.) and 1% penicillin-streptomycin at […] in a humidified atmosphere of 5% CO2 in air. Cultures of 85-90% confluency were used for all of the experiments. The cells were trypsinized, counted, subcultured in 96-well plates for transfection and viability studies. The cells were allowed to adhere overnight before they were used for experiments.

## C[C@@H]1C[C@H]2[C@@H]3CCC4=CC(=O)C=C[C@]4(C)[C@@]3(F)[C@@H](O)C[C@]2(C)[C@@]1(O)C(=O)CO [dexamethasone]
  toxicity to non-cancer cells: did not induce any toxicity
